Laboratory results from US20250340837A1, “CELLS” (University of Geneva, priority 2022, published 2025).

Key:
[1] = tested on: C57Bl/6 ANPGs; experiment: Stemness reprogramming screen with pharmacological modulators plus CHIR99021; format: cell-based, mouse; details: 30 days, with CHIR99021 3 μM
Procedure: (C) C57Bl/6 ANPGs were plated at 10,000 cells/well of a 96 well plate and treated with the WNT agonist (CHIR99021; 3 μM) and the above mentioned compounds (B) for 30 days. Graph representing the average growth (% ANPGs cultured in presence of GF+CHIR) after 30 days. […] Data represent the average±SEM of three independent experiments.
C57Bl/6 ANPGs were plated at 10,000 cells/well of a 96 well plate and treated with the WNT agonist (CHIR99021; 3 μM) and various modulator(s).

[2] = tested on: C57Bl/6 otic progenitors; experiment: Stemness reprogramming and regeneration in hair cell progenitors; format: cell-based, mouse; details: 30 days, with CHIR99021 3 μM
Procedure: C57Bl/6 otic progenitors were plated at 10,000 cells/well of a 96 well plate and treated with WNT agonist (CHIR99021; 3 μM) and the above mentioned compounds for 30 days. (A) Graph representing the average growth (% otic progenitors cultured in presence of GF+CHIR) after 30 days. […] Data represent the average±SEM of three independent experiments.
For reprogramming stemness of auditory hair cells, C57Bl/6 otic progenitors were plated at 10,000 cells/well of a 96 well plate and treated with WNT agonist (CHIR99021; 3 μM) and the above mentioned compounds for 30 days.

[3] = tested on: phoenix auditory neurons; experiment: Induced Ca2+ cytosolic release (FLUO-8) in differentiated phoenix auditory neurons; format: cell-based, mouse; details: phoenix auditory neurons after 7 days of differentiation
Procedure: (A-C) Kinetics of Ca^2+ transients induced by (A) Glutamate (higher trace for the higher concentration), (B) ATP (higher trace for the higher concentration), (C) Kainate in phoenix auditory neurons after 7 days of differentiation. Phoenix auditory neurons were loaded with Ca^2+ sensitive ratiometric probe (FLUO-8) and stimulated with increasing concentrations of glutamate ([…]), ATP (0.005-10 μM) or kainate (0.02-50 μM). (D) Dose response curves were extracted from the max-min amplitude values, allowing the determination of an EC50 value (in order of highest to lowest effect: Ionomycin, ATP, Glutamate, Thapsigargin and Kainate (no effect for Kainate). (E). Ionomycin and Thapsigargin were used as positive control. Data represent the average+/−SEM of 3 independent experiments.
A total of 32,000 cells/well were differentiated to auditory neurons on a 96-well plate coated with Matrigel, as previously described (Rousset et al., 2020). Differentiated cells were loaded with FLUO-8 (Interchim), according to the manufacturer's protocol. After an incubation period of typically 45 min at 37° C. with the inducing agent or control, the induced cytosolic calcium release was assessed in a FDSS/pCELL Functional Drug Screening System (Hamamatsu). The neuronal kinetics of calcium release was followed over about 10 min following treatment, with one measure every 0.5 s.
(§1) To further explore the excitatory function of differentiated phoenix SGCs, Ca2+ mobilization was studied in response to several physiological stimuli, namely glutamate, ATP, and kainate (FIG. 4). […] Ionomycin, an ionophore facilitating the transport of divalent cations across cell membranes, and thapsigargin, inhibiting the SERCA pump and therefore the transfer of Ca^2+ toward endoplasmic reticulum, were used as positive controls (FIG. 4D). The excitatory pattern of phoenix SGCs was also compared with human fetal sphere-derived ones and mouse spiral ganglion explants using live Ca^2+ imaging. […] Therefore, at any passage and following differentiation, phoenix auditory SGCs resemble the auditory neuron physiology.
Further, the impact of BDNF and NT-3 alone or in combination on phoenix auditory neurons' glutamatergic function was assessed. Phoenix neuroprogenitors were plated on poly-ornithine and laminin coated 96 well plates and differentiated for 7 days with or without BDNF and NT-3 alone or in combination. To assess effect of neurotrophins, the auditory neuron were stimulated twice with glutamate: first with 10 μM (EC90) and 10 min later with 100 μM, eliciting a maximal glutamatergic response (FIG. 15A). Traces show the Ca2+ mobilization kinetics with 50 ng/mLNT-3+25 ng/mL BDNF (top light curve) or without neurotrophins (bottom dark curve) upon glutamate stimulation as recorded with Ca2+ sensitive ratiometric probe (FLUO-8). Arrows show the max-min amplitude of the response following the first (10 μM) or the second (100 μM) glutamate stimulation. Heatmaps showing the effect of BDNF and NT-3 alone or in combination on Ca2+ release (min-max amplitude) induced by 10 μM glutamate (FIG. 15B) and 100 μM glutamate (FIG. 15C).

[4] = tested on: human fetal sphere-derived SGCs; experiment: Live Ca2+ imaging in human fetal sphere-derived SGCs; format: cell-based
Description: as §1

[5] = tested on: mouse spiral ganglion explants; experiment: Live Ca2+ imaging in mouse spiral ganglion explants; format: cell-based
Description: as §1

## COc1cc(-c2cc(-c3cccc(O)c3)cnc2N)cc(OC)c1OC [compound 48, K02288]
[1]
  stemness reprogramming, average growth (% ANPGs cultured in presence of GF+CHIR): hits

## COc1cc(-c2cc(-c3ccc(N4CCNCC4)cc3)cnc2C)cc(OC)c1OC [compound 51, LDN-214117]
[2]
  stemness reprogramming, average growth (% otic progenitors cultured in presence of GF+CHIR): particularly good candidates

## C=C(C)[C@H]1CN[C@H](C(=O)O)[C@H]1CC(=O)O [kainate]
[3]
  Induction of Ca2+ transients: failed to induce Ca2+ excitatory transmission
[3]; listed as Kainate
  Induction of Ca2+ transients: no effect
[4]
  Evoked Ca2+ transients: did not respond
[5]
  Evoked Ca2+ transients: did not respond
